IC50 data for 10 compounds are collected here from patent publication US8486951B2 (Deciphera Pharmaceuticals, LLC, priority 2008, dated 2013).

Where two headings read alike, the source gives them in different places.

Assay [1] concerns the target T1, FMS kinase (Homo sapiens, UniProt P07333).
T1 construct: purchased Invitrogen or Millipore
As to the kind of experiment: FMS Kinase Assay. The class given is biochemical. The following applies: read-out: FMS Enzyme Assay. As to the method: (§1) In this assay, the oxidation of NADH (thus the decrease at A340 nm) was continuously monitored spectrophometrically. The reaction mixture (100 μl) contained FMS (purchased from Invitrogen or Millipore, 6 nM), polyE4Y (1 mg/ml), MgCl2 (10 mM), pyruvate kinase (4 units), lactate dehydrogenase (0.7 units), phosphoenol pyruvate (1 mM) and NADH (0.28 mM) and ATP (500 μM) in a 90 mM Tris buffer containing 0.2% octyl-glucoside and 1% DMSO, pH 7.5. The inhibition reaction was started by mixing serial diluted test compound with the above reaction mixture. The absorption at 340 nm was monitored continuously for 4 hours at 30° C. on a Polarstar Optima or Synergy 2 plate reader. The reaction rate was calculated using the 2 to 3 h time frame. Percent inhibition was obtained by comparison of reaction rate with that of a control (i.e. with no test compound). IC50 values were calculated from a series of percent inhibition values determined at a range of inhibitor concentrations using software routines as implemented in the GraphPad Prism software package.

Assay [2] deals with EBC-1 cells. The assay can be described thus: EBC-1 Cell Proliferation Assay (resazurin). The class given is cell-based. The following applies: 67 h + 5 h resazurin, read-out: EBC1 Cell Proliferation. On the procedure:
EBC-1 cells (catalog #JCRB0820) were obtained from the Japan Health Science Research Resources Bank, Osaka, Japan. Briefly, cells were grown in DMEM supplemented with 10% characterized fetal bovine serum (Invitrogen, Carlsbad, Calif.) at 37 degrees Celsius, 5% CO2, 95% humidity. Cells were allowed to expand until reaching 70-95% confluency at which point they were subcultured or harvested for assay use.
EBC-1 Cell Proliferation Assay
A serial dilution of test compound was dispensed into a 96-well black clear bottom plate (Corning, Corning, N.Y.). For each cell line, five thousand cells were added per well in 200 μL complete growth medium. Plates were incubated for 67 hours at 37 degrees Celsius, 5% CO2, 95% humidity. […] Data was analyzed using Prism software (Graphpad, San Diego, Calif.) to calculate IC50 values.

In assay [3] the target is T2, PDGFRβ (Homo sapiens, UniProt P09619).
T2 construct: purchased Invitrogen
The assay can be described thus: PDGFRβ Kinase Assay. The format is biochemical. The following applies: read-out: PDGFRb Enzyme Assay.

The target in assay [4] is T3, PDGFRα kinase (Homo sapiens, UniProt P16234).
T3 construct: purchased Invitrogen
As to the kind of experiment: PDGFRα Kinase Assay. The note with it: read-out: PDGFRa Enzyme Assay. The class given is biochemical. As to the method: as §1, with “Activity of PDGFRα kinase was determined by following the production of ADP from the kinase reaction through coupling with the pyruvate kinase/lactate dehydrogenase system. In” for “In”, “PDGFRα (Invitrogen, 10” for “FMS (purchased from Invitrogen or Millipore, 6”

The target in assay [5] is KDR kinase (Seq ID No. 3) (Homo sapiens, UniProt P35968, DEL940-989/E990V). The assay can be described thus: KDR Kinase Assay (assays K1, K2, K3). The class given is biochemical. The following applies: assay variant K1, K2 or K3 not stated; read-out: KDR Enzyme Assay.
The target of assay [6] is T4, c-KIT kinase (Seq. ID no. 1) (Homo sapiens, UniProt P10721).
T4 construct: purchased ProQinase
As to the kind of experiment: c-KIT kinase Assay (ADP production, pyruvate kinase/lactate dehydrogenase coupled). The format is biochemical. The following applies: read-out: cKIT Enzyme Assay. On the procedure: In this assay, the oxidation of NADH (thus the decrease at A340 nm) was continuously monitored spectrophometrically. […] The absorption at 340 nm was monitored continuously for 0.5 hours at 30° C. on Polarstar Optima plate reader (BMG). The reaction rate was calculated using the 0 to 0.5 h time frame. Percent inhibition was obtained by comparison of reaction rate with that of a control (i.e. with no test compound). IC50 values were calculated from a series of percent inhibition values determined at a range of inhibitor concentrations using software routines as implemented in the GraphPad Prism software package.

Assay [7] deals with T5, c-MET kinase (Seq. ID no. 2) (Homo sapiens, UniProt P08581).
T5 construct: purchased Invitrogen PV3143
The assay can be described thus: c-MET Kinase Assay (ADP production, pyruvate kinase/lactate dehydrogenase coupled). The class given is biochemical. The note with it: read-out: cMET Enzyme Assay. As to the method:
In this assay, the oxidation of NADH (thus the decrease at A340 nm) was continuously monitored spectrophometrically. […] Test compounds were incubated with C-Met (Seq. ID no. 2) and other reaction reagents at 22° C. for 0.5 h before ATP (100 μM) was added to start the reaction. The absorption at 340 nm was monitored continuously for 2 hours at 30° C. on Polarstar Optima plate reader (BMG). The reaction rate was calculated using the 1.0 to 2.0 h time frame. Percent inhibition was obtained by comparison of reaction rate with that of a control (i.e. with no test compound). IC50 values were calculated from a series of percent inhibition values determined at a range of inhibitor concentrations using software routines as implemented in the GraphPad Prism software package.

Assay [8] has as its target T6, phospho-VEGF R2 (Homo sapiens, UniProt P35968).
T6 construct: host or cells: HUVEC
As to the kind of experiment: HUVEC VEGF/KDR ELISA (phospho-VEGF R2 after VEGF stimulation). The format is cell-based. The note with it: 4 h compound, 100 ng/mL VEGF 5 min, read-out: HUVEC pKDR. On the procedure:
HUVEC (Human umbilical vein endothelial cell) cells were obtained from Lonza (Lonza, Walkersville, Md.). Briefly, cells were grown in EGM-2 (Lonza, Walkersville, Md.) at 37 degrees Celsius, 5% CO2, 95% humidity. Cells were allowed to expand until reaching 90-95% saturation at which point they were subcultured or harvested for assay use. For assay use, cells were harvested and grown in EGM-2 medium supplemented with 2% FBS (Lonza, Walkersville, Md.).
Twenty-five thousand cells were added per well in a 96-well black clear bottom plate (Corning, Corning, N.Y.). Cells were then incubated overnight at 37 degrees Celsius, 5% CO2, 95% humidity. A serial dilution of test compound was dispensed into another 96-well black clear bottom plate (Corning, Corning, N.Y.) containing EBM-2 supplemented with 2% FBS. Compound was added to plates containing cells and incubated for 4 hours at 37 degrees Celsius, 5% CO2, 95% humidity. Cells were stimulated with 100 ng/mL VEGF (R&D Systems, Minneapolis, Minn.) for 5 minutes, then lysed. Cell lysates were used to detect phospho-VEGF R2 using DuoSet IC HUVEC VEGF/KDR ELISA (R&D Systems, Minneapolis, Minn.). Data was analyzed using Prism software (Graphpad, San Diego, Calif.) to calculate IC50's.
A general note: In an ELISA, binding on a coated surface is turned into a signal by an enzyme label.

KDR kinase (Seq ID No. 3), sequence (P35968 with tags, fused parts or gaps DEL940-989/E990V): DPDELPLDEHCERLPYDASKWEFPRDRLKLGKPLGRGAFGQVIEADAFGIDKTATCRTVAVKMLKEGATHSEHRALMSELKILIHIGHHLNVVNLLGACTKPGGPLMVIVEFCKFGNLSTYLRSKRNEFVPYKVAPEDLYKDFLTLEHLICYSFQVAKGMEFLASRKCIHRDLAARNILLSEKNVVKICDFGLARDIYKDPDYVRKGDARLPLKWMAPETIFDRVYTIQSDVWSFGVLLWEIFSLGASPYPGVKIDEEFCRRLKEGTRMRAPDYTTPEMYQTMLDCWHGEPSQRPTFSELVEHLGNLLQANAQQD
T1 sequence (P07333 20-972): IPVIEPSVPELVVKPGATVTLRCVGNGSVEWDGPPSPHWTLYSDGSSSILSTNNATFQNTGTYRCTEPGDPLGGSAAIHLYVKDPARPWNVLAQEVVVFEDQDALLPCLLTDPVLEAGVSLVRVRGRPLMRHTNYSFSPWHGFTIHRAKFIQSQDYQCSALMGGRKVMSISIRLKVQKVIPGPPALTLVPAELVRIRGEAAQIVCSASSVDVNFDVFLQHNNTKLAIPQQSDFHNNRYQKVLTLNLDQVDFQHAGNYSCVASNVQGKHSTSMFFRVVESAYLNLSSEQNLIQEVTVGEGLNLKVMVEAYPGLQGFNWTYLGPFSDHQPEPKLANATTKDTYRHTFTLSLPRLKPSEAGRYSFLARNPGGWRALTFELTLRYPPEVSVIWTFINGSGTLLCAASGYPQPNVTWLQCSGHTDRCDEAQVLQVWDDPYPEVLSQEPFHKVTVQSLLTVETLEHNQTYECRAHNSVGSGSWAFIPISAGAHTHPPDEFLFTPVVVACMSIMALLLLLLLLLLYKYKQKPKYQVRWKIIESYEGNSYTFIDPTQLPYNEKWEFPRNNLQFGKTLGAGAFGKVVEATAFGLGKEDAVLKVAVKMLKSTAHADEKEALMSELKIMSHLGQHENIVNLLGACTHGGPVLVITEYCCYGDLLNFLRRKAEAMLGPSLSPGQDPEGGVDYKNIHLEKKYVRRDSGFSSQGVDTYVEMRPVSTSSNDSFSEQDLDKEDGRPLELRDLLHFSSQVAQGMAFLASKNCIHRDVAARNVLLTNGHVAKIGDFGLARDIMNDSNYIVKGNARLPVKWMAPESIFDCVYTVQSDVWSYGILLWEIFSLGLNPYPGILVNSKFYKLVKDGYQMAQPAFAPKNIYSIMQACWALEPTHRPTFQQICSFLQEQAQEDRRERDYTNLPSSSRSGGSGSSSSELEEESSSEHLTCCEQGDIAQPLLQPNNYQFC
T4 sequence (P10721 with tags, fused parts or gaps): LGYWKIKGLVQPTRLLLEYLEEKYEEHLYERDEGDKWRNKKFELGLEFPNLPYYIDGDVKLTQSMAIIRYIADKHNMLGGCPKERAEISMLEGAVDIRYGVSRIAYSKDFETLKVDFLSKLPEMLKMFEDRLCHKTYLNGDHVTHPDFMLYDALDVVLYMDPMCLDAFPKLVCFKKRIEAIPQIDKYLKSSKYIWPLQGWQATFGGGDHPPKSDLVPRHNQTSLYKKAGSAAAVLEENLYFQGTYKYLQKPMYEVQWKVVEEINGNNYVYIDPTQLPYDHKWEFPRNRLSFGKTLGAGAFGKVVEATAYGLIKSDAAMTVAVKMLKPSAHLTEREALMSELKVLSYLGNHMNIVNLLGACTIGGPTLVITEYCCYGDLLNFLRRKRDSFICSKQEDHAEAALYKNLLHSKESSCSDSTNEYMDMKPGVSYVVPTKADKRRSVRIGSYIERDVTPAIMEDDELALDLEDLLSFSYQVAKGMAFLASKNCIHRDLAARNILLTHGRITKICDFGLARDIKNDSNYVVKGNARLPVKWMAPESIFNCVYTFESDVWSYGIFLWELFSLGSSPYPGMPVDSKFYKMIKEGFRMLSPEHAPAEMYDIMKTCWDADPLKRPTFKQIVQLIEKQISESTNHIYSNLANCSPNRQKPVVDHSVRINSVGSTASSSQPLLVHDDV
T3 sequence (P16234 24-1089): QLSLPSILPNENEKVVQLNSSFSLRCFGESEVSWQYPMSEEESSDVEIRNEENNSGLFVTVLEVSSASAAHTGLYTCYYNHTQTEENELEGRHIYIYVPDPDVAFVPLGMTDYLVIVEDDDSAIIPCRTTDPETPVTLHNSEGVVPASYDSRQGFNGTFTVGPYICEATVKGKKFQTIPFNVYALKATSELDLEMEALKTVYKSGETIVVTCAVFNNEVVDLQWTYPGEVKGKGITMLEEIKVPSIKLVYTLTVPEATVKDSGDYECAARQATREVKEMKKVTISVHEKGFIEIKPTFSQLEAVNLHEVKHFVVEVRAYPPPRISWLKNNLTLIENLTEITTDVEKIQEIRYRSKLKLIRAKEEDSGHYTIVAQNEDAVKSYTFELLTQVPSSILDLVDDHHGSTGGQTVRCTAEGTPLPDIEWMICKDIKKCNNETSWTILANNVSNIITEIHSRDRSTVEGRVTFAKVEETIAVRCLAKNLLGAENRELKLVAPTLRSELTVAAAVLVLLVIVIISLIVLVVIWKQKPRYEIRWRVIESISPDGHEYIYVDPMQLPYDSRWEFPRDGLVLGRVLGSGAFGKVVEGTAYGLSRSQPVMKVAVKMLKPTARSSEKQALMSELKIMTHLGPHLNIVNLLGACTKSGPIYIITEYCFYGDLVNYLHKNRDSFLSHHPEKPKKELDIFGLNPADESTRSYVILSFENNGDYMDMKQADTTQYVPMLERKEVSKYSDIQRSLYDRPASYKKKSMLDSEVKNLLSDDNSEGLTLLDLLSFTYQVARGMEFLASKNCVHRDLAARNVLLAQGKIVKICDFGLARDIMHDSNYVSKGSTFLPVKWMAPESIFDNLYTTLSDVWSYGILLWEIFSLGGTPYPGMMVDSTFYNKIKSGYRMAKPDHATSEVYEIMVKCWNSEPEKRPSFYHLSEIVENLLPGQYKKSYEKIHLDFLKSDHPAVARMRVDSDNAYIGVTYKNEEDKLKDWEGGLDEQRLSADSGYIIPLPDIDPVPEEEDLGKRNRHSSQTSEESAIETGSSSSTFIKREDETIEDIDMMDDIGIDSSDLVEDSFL
T2 sequence (P09619 33-1106): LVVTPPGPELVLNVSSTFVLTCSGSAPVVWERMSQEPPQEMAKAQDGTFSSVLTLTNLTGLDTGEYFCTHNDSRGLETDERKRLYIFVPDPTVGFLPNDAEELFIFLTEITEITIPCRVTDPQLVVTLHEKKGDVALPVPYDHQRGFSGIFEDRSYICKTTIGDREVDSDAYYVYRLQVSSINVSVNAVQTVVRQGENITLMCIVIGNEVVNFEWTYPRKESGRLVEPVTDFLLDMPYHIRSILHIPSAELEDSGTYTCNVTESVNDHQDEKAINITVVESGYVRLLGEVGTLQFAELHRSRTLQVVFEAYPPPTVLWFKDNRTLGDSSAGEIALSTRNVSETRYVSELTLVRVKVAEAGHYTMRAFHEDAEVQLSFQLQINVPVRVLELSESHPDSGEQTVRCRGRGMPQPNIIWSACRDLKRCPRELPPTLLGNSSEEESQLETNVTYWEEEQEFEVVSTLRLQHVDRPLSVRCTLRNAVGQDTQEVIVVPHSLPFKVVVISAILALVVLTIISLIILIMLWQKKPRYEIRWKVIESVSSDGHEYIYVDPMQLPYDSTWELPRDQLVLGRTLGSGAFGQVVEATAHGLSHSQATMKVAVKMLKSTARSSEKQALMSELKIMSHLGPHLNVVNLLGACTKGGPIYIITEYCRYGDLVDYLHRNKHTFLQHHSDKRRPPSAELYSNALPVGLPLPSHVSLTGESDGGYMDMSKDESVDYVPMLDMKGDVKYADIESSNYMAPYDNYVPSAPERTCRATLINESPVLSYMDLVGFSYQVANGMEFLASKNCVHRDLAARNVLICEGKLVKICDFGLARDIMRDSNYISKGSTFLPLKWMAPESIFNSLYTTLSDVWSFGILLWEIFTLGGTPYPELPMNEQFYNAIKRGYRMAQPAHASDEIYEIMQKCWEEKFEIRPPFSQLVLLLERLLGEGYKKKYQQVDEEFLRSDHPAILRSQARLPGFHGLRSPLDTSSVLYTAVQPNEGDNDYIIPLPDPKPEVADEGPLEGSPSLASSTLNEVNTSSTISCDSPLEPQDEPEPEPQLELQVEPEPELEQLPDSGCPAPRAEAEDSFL
T5 sequence (P08581 with tags, fused parts or gaps): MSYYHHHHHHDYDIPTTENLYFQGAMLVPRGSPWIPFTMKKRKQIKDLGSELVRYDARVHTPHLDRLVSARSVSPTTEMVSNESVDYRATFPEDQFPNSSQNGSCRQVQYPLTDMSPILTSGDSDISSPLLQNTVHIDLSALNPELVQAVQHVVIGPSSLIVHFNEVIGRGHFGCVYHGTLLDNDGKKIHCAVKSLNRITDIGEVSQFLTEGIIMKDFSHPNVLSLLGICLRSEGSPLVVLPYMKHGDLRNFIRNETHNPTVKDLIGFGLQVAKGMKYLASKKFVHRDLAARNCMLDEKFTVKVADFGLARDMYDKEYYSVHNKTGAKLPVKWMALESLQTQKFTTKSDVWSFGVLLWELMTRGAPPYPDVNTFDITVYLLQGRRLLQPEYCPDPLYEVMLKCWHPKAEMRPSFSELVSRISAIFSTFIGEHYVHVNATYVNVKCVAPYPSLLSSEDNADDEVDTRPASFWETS

Turning to `C[C@H](NC(=O)C1(C(=O)Nc2ccc(Oc3ccnc(-c4cnn(C)c4)c3)c(F)c2)CC1)c1ccccc1` [Example 16, N-(3-fluoro-4-(2-(1-methyl-1H-pyrazol-4-yl)pyridin-4-yloxy)phenyl)-N′-((S)-1-phenylethyl)cyclopropane-1,1-dicarboxamide], the IC50 in assay [1] was under 200 nM; in assay [2] (Homo sapiens), under 10000 nM; in assay [3] it was under 10000 nM; in assay [4], under 2000 nM; in assay [5] it was under 10000 nM; in assay [6], under 200 nM.
Take `Cn1cc(-c2cc(Oc3ccc(NC(=O)C4(C(=O)Nc5ccc(Cl)cc5)CC4)c(F)c3)ccn2)cn1` [Example 22, N-(4-chlorophenyl)-N′-(2-fluoro-4-(2-(1-methyl-1H-pyrazol-4-yl)pyridin-4-yloxy)phenyl)cyclopropane-1,1-dicarboxamide]: the IC50 in assay [1] is under 200 nM; in assay [2] (Homo sapiens), under 2000 nM; in assay [3], under 2000 nM; in assay [4] it was under 2000 nM; in assay [5], under 2000 nM; in assay [7], under 2000 nM. Also, in assay [6], the IC50 was under 2000 nM.
Take `Cc1ccc(NC(=O)C2(C(=O)Nc3ccc(Oc4ccnc(-c5cnn(C)c5)c4)cc3F)CC2)cc1` [Example 23, N-(2-fluoro-4-(2-(1-methyl-1H-pyrazol-4-yl)pyridin-4-yloxy)phenyl)-N′-p-tolylcyclopropane-1,1-dicarboxamide]: the IC50 in assay [1] was under 2000 nM; in assay [2] (Homo sapiens) it was under 2000 nM; in assay [3], under 10000 nM; in assay [4], under 10000 nM; in assay [5] it was under 10000 nM; in assay [7], under 2000 nM. Further, in assay [6], the IC50 is under 10000 nM.
On to `Cn1cc(-c2cc(Oc3ccc(NC(=O)C4(C(=O)Nc5ccc(F)cc5)CC4)c(F)c3)ccn2)cn1` [Example 7, N-(2-fluoro-4-(2-(1-methyl-1H-pyrazol-4-yl)pyridin-4-yloxy)phenyl)-N′-(4-fluorophenyl)cyclopropane-1,1-dicarboxamide], for which the IC50 in assay [1] was under 200 nM; in assay [2] (Homo sapiens), under 200 nM; in assay [3], under 10000 nM; in assay [4], under 2000 nM; in assay [5], under 2000 nM; in assay [8], under 2000 nM. In addition, the IC50 in assay [6] is under 10000 nM.
Regarding `Cc1cc(NC(=O)C2(C(=O)Nc3ccc(F)cc3)CC2)c(F)cc1Oc1ccnc(-c2cnn(C)c2)c1` [Example 51, N-(2-fluoro-5-methyl-4-(2-(1-methyl-1H-pyrazol-4-yl)pyridin-4-yloxy)phenyl)-N′-(4-fluorophenyl)cyclopropane-1,1-dicarboxamide], the IC50 was under 200 nM in assay [1]; under 2000 nM in assay [2] (Homo sapiens); under 2000 nM in assay [3]; under 2000 nM in assay [4]; under 2000 nM in assay [5]; under 200 nM in assay [7]. In addition, in assay [6], the IC50 is under 200 nM.
Turning to `Cn1cc(-c2cc(Oc3ccc(NC(=O)C4(C(=O)Nc5cccc(C(F)(F)F)c5)CC4)cc3F)ccn2)cn1` [Example 6, N-(3-fluoro-4-(2-(1-methyl-1H-pyrazol-4-yl)pyridin-4-yloxy)phenyl)-N′-(3-(trifluoromethyl)phenyl)cyclopropane-1,1-dicarboxamide], the IC50 in assay [1] is under 2000 nM; in assay [2] (Homo sapiens), under 10000 nM; in assay [3], under 10000 nM; in assay [4], under 2000 nM; in assay [5] it was under 200 nM; in assay [6] it was under 10000 nM.
In the case of `Cn1cc(-c2cc(Oc3cc(F)c(NC(=O)C4(C(=O)Nc5ccc(F)cc5)CC4)cc3Cl)ccn2)cn1` [Example 47, N-(5-chloro-2-fluoro-4-(2-(1-methyl-1H-pyrazol-4-yl)pyridin-4-yloxy)phenyl)-N′-(4-fluorophenyl)cyclopropane-1,1-dicarboxamide], the IC50 in assay [2] (Homo sapiens) is under 200 nM; in assay [3], under 10000 nM; in assay [4] it was under 200 nM; in assay [5], under 2000 nM; in assay [7], under 200 nM; in assay [6] it was under 200 nM.
With “N-(2,5-difluoro-4-(2-(1-methyl-1H-pyrazol-4-yl)pyridin-4-yloxy)phenyl)-N-(4-fluorophenyl)cyclopropane-1,1-dicarboxamide [Example 40]”, the IC50 in assay [2] is under 200 nM; in assay [3] it was under 10000 nM; in assay [4] it was under 2000 nM; in assay [5], under 200 nM; in assay [8], under 2000 nM; in assay [7], under 200 nM. The IC50 in assay [6] is under 200 nM.
For `Cc1nn(C)cc1-c1cc(Oc2cc(F)c(NC(=O)C3(C(=O)Nc4ccc(F)cc4)CC3)cc2F)ccn1` [Example 49, N-(4-(2-(1,3-Dimethyl-1H-pyrazol-4-yl)pyridin-4-yloxy)-2,5-difluorophenyl)-N′-(4-fluorophenyl)cyclopropane-1,1-dicarboxamide], the IC50 was under 2000 nM in assay [1]; under 2000 nM in assay [2] (Homo sapiens); under 10000 nM in assay [3]; under 10000 nM in assay [4]; under 2000 nM in assay [5]; under 200 nM in assay [7]. Further, in assay [6], the IC50 is under 200 nM.
In the case of `Cn1cc(-c2cc(Oc3cc(F)c(NC(=O)NC(=O)Cc4ccc(F)cc4)cc3Cl)ccn2)cn1` [Example 46, 1-(5-chloro-2-fluoro-4-(2-(1-methyl-1H-pyrazol-4-yl)pyridin-4-yloxy)phenyl)-3-(2-(4-fluorophenyl)acetyl)urea], the IC50 in assay [2] (Homo sapiens) is under 200 nM; in assay [3] it was under 200 nM; in assay [4] it was under 200 nM; in assay [5], under 2000 nM; in assay [7], under 200 nM; in assay [6], under 200 nM.
